Assay results as given in US20060276464A1, “Diarylsulfone sulfonamides and use thereof” (Wyeth, priority 2005, published 2006).
Like-named read-outs stand apart in the source and are kept apart here.

How the values were obtained:
[1] = target: T1, SFRP-1 (Homo sapiens, UniProt Q8N474); experiment: Fluorescence polarization binding assay (competitive displacement of a probe compound from SFRP-1); settings: fluorescence anisotropy, 45 nM SFRP-1, 20 nM probe;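 note: test compound competes with a fluorescent probe held by SFRP-1, seen as a drop in probe anisotropy after incubation in darkness, with anisotropy as function of rising compound dose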
T1 sequence (Q8N474 32-314): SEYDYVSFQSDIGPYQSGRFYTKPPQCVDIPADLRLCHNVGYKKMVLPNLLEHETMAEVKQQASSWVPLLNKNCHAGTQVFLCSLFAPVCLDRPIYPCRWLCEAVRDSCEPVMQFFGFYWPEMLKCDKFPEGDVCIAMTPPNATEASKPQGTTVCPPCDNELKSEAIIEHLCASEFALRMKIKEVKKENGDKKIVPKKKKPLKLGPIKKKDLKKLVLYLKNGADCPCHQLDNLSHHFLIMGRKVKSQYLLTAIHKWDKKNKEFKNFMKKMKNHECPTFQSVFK

[2] = target: T1, SFRP-1; experiment: Cell-based assay for in vitro measurement of SFRP-1/SARP2 antagonist activity (U2OS cells co-transfected with 16x TCF-tk-Luciferase reporter, Wnt and hSFRP-1); settings: for fold induction at 10 µM / fold induction at 15 µM: U2OS; for fold induction at 10 µM: read-out: Fold Induction with SFRP-1, U2OS cells, single dose 10 μM, luciferase reporter, fold induction over SFRP-1 control;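 for all read-outs here: U2OS cells co-transfected with a TCF-tk luciferase reporter, a Wnt vector, hSFRP-1 or empty vector and CMV-βgal, luciferase luminescence read in cell lysates alongside βgal activity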
[3] = read-out: Fold Induction with SFRP-1, Conc 15 μM, single dose, luciferase reporter, fold induction over SFRP-1 control, cells with SFRP-1
[4] = read-out: Fold Induction without SFRP-1, Conc 15 μM, single dose, luciferase reporter, cells without SFRP-1 (specificity control)

SMILES	IC50 [1] [nM]	melting point [°C]	EC50 [2] [nM]	other results
CC(C)c1ccc(S(=O)(=O)c2ccccc2)cc1S(=O)(=O)NC1C[C@H]2CC[C@@H](C1)N2C.Cl (relative stereo) [Example 860, 2-Isopropyl-N-[(1R*,5S*)-8-methyl-8-azabicyclo[3.2.1]oct-3-yl]-5-(phenylsulfonyl)benzenesulfonamide monohydrochloride]	800	90	–	fold induction at 10 µM [2]: 4.1
Cc1ccc(S(=O)(=O)c2cc3c(c(S(=O)(=O)NCCc4ccccc4F)c2)CCCC3)cc1 [Example 441, N-[2-(2-Fluorophenyl)ethyl]-3-[(4-methylphenyl)sulfonyl]-5,6,7,8-tetrahydronaphthalene-1-sulfonamide]	6000	55 to 60	–	fold induction at 15 µM ([2]; read-out: Fold Induction with SFRP-1, Conc 15 μM, with SFRP-1, fold induction over SFRP-1 control, single dose): 1.8; fold induction at 15 µM ([2]; read-out: Fold Induction without SFRP-1, Conc 15 μM, without SFRP-1, single dose): 1.1
CCCc1ccc(S(=O)(=O)c2ccccc2)cc1S(=O)(=O)NC1CCOCC1 [Example 551, 5-(Phenylsulfonyl)-2-propyl-N-(tetrahydro-2H-pyran-4-yl)benzenesulfonamide]	1000	131 to 133	–	fold induction at 15 µM [2, 3]: 3.1; fold induction at 15 µM [2, 4]: 1.1
CC(C)c1cc(C(C)C)c(S(=O)(=O)c2ccccc2)cc1S(=O)(=O)NC1Cc2ccccc2C1 [Example 618, N-(2,3-Dihydro-1H-inden-2-yl)-2,4-diisopropyl-5-(phenylsulfonyl)benzenesulfonamide]	–	215 to 217	–	fold induction at 15 µM [2, 3]: 2.8; fold induction at 15 µM [2, 4]: 1.1
CC(C)c1cc(C(C)C)c(S(=O)(=O)c2ccc(F)cc2)cc1S(=O)(=O)NCCc1ccccc1 [Example 619, 5-[(4-Fluorophenyl)sulfonyl]-2,4-diisopropyl-N-(2-phenylethyl)benzenesulfonamide]	–	154 to 156	–	fold induction at 15 µM [2, 3]: 1.3; fold induction at 15 µM [2, 4]: 1.1
CC(C)c1cc(C(C)C)c(S(=O)(=O)c2ccc(F)cc2)cc1S(=O)(=O)NC1CCCC1 [Example 621, N-Cyclopentyl-5-[(4-fluorophenyl)sulfonyl]-2,4-diisopropylbenzenesulfonamide]	–	202 to 205	–	fold induction at 15 µM [2, 3]: 1.2; fold induction at 15 µM [2, 4]: 1
CC(C)c1cc(C(C)C)c(S(=O)(=O)c2ccc(F)cc2)cc1S(=O)(=O)NCCc1ccncc1 [Example 633, 5-[(4-Fluorophenyl)sulfonyl]-2,4-diisopropyl-N-(2-pyridin-4-ylethyl)benzenesulfonamide]	–	210 to 211	–	fold induction at 15 µM [2, 3]: 1.5; fold induction at 15 µM [2, 4]: 1
CC(C)c1cc(C(C)C)c(S(=O)(=O)c2ccc(F)cc2)cc1S(=O)(=O)NC1Cc2ccccc2C1 [Example 634, N-(2,3-Dihydro-1H-inden-2-yl)-5-[(4-fluorophenyl)sulfonyl]-2,4-diisopropylbenzenesulfonamide]	–	202 to 204	–	fold induction at 15 µM [2, 3]: 3; fold induction at 15 µM [2, 4]: 1
COc1ccc(S(=O)(=O)c2ccccc2)cc1S(=O)(=O)NCCc1cccnc1 [Example 678, 2-Methoxy-5-(phenylsulfonyl)-N-(2-pyridin-3-ylethyl)benzenesulfonamide]	–	181 to 183	–	fold induction at 10 µM [2]: 1.6
CC(C)(C)OC(=O)N1CCC[C@H]1C(=O)N1CCC(NS(=O)(=O)c2cc(S(=O)(=O)c3cccc(C#N)c3)ccc2C(F)(F)F)CC1 [Example 1095, tert-butyl (2S)-2-{[4-({[5-[(3-cyanophenyl)sulfonyl]-2-(trifluoromethyl)phenyl]sulfonyl}amino)piperidin-1-yl]carbonyl}pyrrolidine-1-carboxylate]	60	–	374	–

Continued, in another order:

IC50 [1] [nM]	melting point [°C]	EC50 [2] [nM]	SMILES	other results
300	154 to 157	1350	CN1[C@@H]2CC[C@H]1CC(NS(=O)(=O)c1cc(S(=O)(=O)c3ccccc3)ccc1C(F)(F)F)C2 (relative stereo) [Example 1035, N-[(1R*, 5S*)-8-Methyl-8-azabicyclo[3.2.1]oct-3-yl]-5-(phenylsulphonyl)-2-(trifluoromethyl)benzenesulfonamide]	–
–	176 to 178	–	COc1ccc(S(=O)(=O)c2ccccc2)cc1S(=O)(=O)NC1CCOCC1 [Example 689, 2-Methoxy-5-(phenylsulfonyl)-N-(tetrahydro-2H-pyran-4-yl)benzenesulfonamide]	fold induction at 10 µM [2]: 1.2
40	–	329	O=C([C@@H]1CCCN1C(=O)c1ccc(Cl)nc1)N1CCC(NS(=O)(=O)c2cc(S(=O)(=O)c3ccccc3)ccc2C(F)(F)F)CC1 [Example 1079, N-(1-{1-[(6-chloropyridin-3-yl)carbonyl]-L-prolyl}piperidin-4-yl)-5-(phenylsulfonyl)-2-(trifluoromethyl)benzenesulfonamide]	–
30	–	386	O=C(O)c1ccc(S(=O)(=O)N2CCC[C@H]2C(=O)N2CCC(NS(=O)(=O)c3cc(S(=O)(=O)c4ccccc4)ccc3C(F)(F)F)CC2)cc1 [Example 1080, 4-[((2S)-2-{[4-({[5-(phenylsulfonyl)-2-(trifluoromethyl)phenyl]sulfonyl}amino)piperidin-1-yl]carbonyl}pyrrolidin-1-yl)sulfonyl]benzoic acid]	–
16	–	289	O=C(O)c1ccc2c(c1)CC(NS(=O)(=O)c1cc(S(=O)(=O)c3ccccc3)ccc1C(F)(F)F)C2 (centres unmarked) [Example 1082, 2-({[5-(phenylsulfonyl)-2-(trifluoromethyl)phenyl]sulfonyl}amino)indane-5-carboxylic acid]	–
150	–	366	CNC(=O)CN1CCC(NS(=O)(=O)c2cc(S(=O)(=O)c3ccccc3)ccc2C(F)(F)F)CC1 [Example 1083, N-methyl-2-[4-({[5-(phenylsulfonyl)-2-(trifluoromethyl)phenyl]sulfonyl}amino)piperidin-1-yl]acetamide]	–
150	–	746	CN(C)C(=O)CN1CCC(NS(=O)(=O)c2cc(S(=O)(=O)c3ccccc3)ccc2C(F)(F)F)CC1 [Example 1085, N,N-dimethyl-2-[4-({[5-(phenylsulfonyl)-2-(trifluoromethyl)phenyl]sulfonyl}amino)piperidin-1-yl]acetamide]	–
270	–	492	CC(C)NC(=O)CN1CCC(NS(=O)(=O)c2cc(S(=O)(=O)c3ccccc3)ccc2C(F)(F)F)CC1 [Example 1086, N-isopropyl-2-[4-({[5-(phenylsulfonyl)-2-(trifluoromethyl)phenyl]sulfonyl}amino)piperidin-1-yl]acetamide]	–
130	–	746	O=C(CN1CCC(NS(=O)(=O)c2cc(S(=O)(=O)c3ccccc3)ccc2C(F)(F)F)CC1)N1CCOCC1 [Example 1087, N-[1-(2-morpholin-4-yl-2-oxoethyl)piperidin-4-yl]-5-(phenylsulfonyl)-2-(trifluoromethyl)benzenesulfonamide]	–
60	–	393	O=C(c1cscn1)N1CCC(NS(=O)(=O)c2cc(S(=O)(=O)c3ccccc3)ccc2C(F)(F)F)CC1 [Example 1090, 5-(phenylsulfonyl)-N-[1-(1,3-thiazol-4-ylcarbonyl)piperidin-4-yl]-2-(trifluoromethyl)benzenesulfonamide]	–
110	–	–	O=S(=O)(NC1Cc2ccc(Br)cc2C1)c1cc(S(=O)(=O)c2ccccc2)ccc1C(F)(F)F (centres unmarked) [Example 1094, N-(5-bromo-2,3-dihydro-1H-inden-2-yl)-5-(phenylsulfonyl)-2-(trifluoromethyl)benzenesulfonamide]	fold induction at 10 µM [2]: 10.4
